Measurements taken from US9150579B2, “Selective PI3K delta inhibitors” (Rhizen Pharmaceuticals SA, priority 2012, dated 2015).
“Also recorded” adds a separate entry of the source.

Columns and labels:
[1] = Metabolic stability in mouse liver microsomes; assay type: in vitro ADME; conditions: 1 μM test item, 60 minutes, NADPH
Experimental: (§1) Metabolic stability studies were conducted using mouse, rat, and human liver microsomes. The protocol for the studies with mouse, rat, and human liver microsomes (all from BD Gentest, USA) is provided below. In brief, 0.4 mg protein was preincubated with 2 mM NADPH (cofactor) in phosphate buffer (pH˜7.4) for 15 min at 37° C. and then added with 1 μM test item and incubated further for 60 minutes in triplicate. The reaction mixture was terminated with methanol containing an internal standard and centrifuged further to analyze the test item remaining in the supernatant by LC-MS/MS. The percent parent compound remaining was calculated in comparison with similar samples terminated at 0 minutes.

[2] = Metabolic stability in rat liver microsomes; assay type: in vitro ADME; conditions: 1 μM test item, 60 minutes, NADPH
Experimental: as §1

PI3K delta = PI3K delta (Homo sapiens (Human), UniProt O00329); experiment: Assay 1: Fluorescent (HTRF) determination of PI3K enzyme activity, delta; assay type: biochemical
Experimental: (§2) The homogenous time resolved fluorescence (HTRF) assay allows detection of 3,4,5-triphosphate (PIP3) formed as a result of phosphorylation of phosphotidylinositol 4,5-biphosphate (PIP2) by PI3K isoforms such as α, β, γ or δ.
(§3) PI3K isoform activity for α, β, γ or δ was determined using a PI3K human HTRF™ Assay Kit (Millipore, Billerica, Mass.) with modifications. All incubations were carried out at room temperature. […] After the initial incubation, 5 μl/well of 400 μM ATP was added and incubated for an additional 30 minutes. Reaction was terminated by adding 5 μl/well stop solution (Millipore, Billerica, Mass.). Five microliters of detection mix (Millipore, Billerica, Mass.) were then added to each well and was incubated for 6-18 h in the dark. HRTF ratio was measured on a microplate reader (BMG Labtech., Germany) at an excitation wavelength of 337 nm and emission wavelengths of 665 and 620 nm with an integration time of 400 μsec.

PI3K α = PI3K α (Homo sapiens (Human), UniProt P42336); experiment: Assay 1: Fluorescent (HTRF) determination of PI3K enzyme activity, alpha; assay type: biochemical
Experimental: as §2
as §3, with “dark.” for “dark. HRTF ratio was measured on a microplate reader (BMG Labtech., Germany) at an excitation wavelength of 337 nm and emission wavelengths of 665 and 620 nm with an integration time of 400 μsec.”

PI3K β = PI3K β (Homo sapiens (Human), UniProt P42338); experiment: Assay 1: Fluorescent (HTRF) determination of PI3K enzyme activity, beta; assay type: biochemical
Experimental: as §2
as §3, with “dark.” for “dark. HRTF ratio was measured on a microplate reader (BMG Labtech., Germany) at an excitation wavelength of 337 nm and emission wavelengths of 665 and 620 nm with an integration time of 400 μsec.”

PI3K γ = PI3K γ (Homo sapiens (Human), UniProt P48736); experiment: Assay 1: Fluorescent (HTRF) determination of PI3K enzyme activity, gamma; assay type: biochemical
Experimental: as §2
as §3, with “dark.” for “dark. HRTF ratio was measured on a microplate reader (BMG Labtech., Germany) at an excitation wavelength of 337 nm and emission wavelengths of 665 and 620 nm with an integration time of 400 μsec.”

[3] = tested on: AKT phosphorylation in THP-1, HL-60, MOLT-4, RPMI-8226, or DLBCL cells; experiment: Assay 3: Inhibition of AKT phosphorylation in leukemic cell lines; assay type: cell-based; conditions: 48 hours, Western Blotting
Experimental: Inhibition of AKT phosphorylation in leukemic cell lines: THP-1, HL-60, MOLT-4, RPMI-8226, or DLBCL cells were incubated with desired concentrations of compound for 48 hours. Cells were lysed and pAKT was determined by Western Blotting. Bands were quantified using ImageJ and normalized to actin.

PI3Kδ = PI3Kδ (Homo sapiens (Human), UniProt O00329); experiment: Assay 4a: IgM-induced B cell proliferation assay (PI3Kδ); conditions: Cell-based
Experimental: Compound specificity towards PI3Kδ was determined in an IgM-induced B cell proliferation assay. B-cells isolated from blood of healthy subjects were seeded in a 96-well tissue culture plate and incubated with desired concentrations of compound for 30 min. Cells were stimulated with 5 μg/ml purified goat anti-human IgM. Growth was assessed using the 3-[4,5-dimethylthiazol-2-yl]-2,5-diphenyltetrazolium bromide (MTT) dye reduction test. For selectivity against PI3K α, β, or γ isoforms, NIH-3T3 or RAW macrophages were seeded in a 6-well tissue culture plate and incubated overnight. Complete medium was replaced with serum-free media the following day and compound at the desired concentrations were added. After 15 minutes, 20 ng/ml PDGF, 5 μM LPA, or 50 ng/ml c5a was added and incubated for an additional 10 minutes. Cells were lysed and AKT phosphorylation was determined by Western Blotting. Intensity of the bands was determined using ImageJ 1.42q (NIH, USA) and normalized to Actin (loading control).

[4] = tested on: pAKT in AML patient bone marrow leukemic cells; experiment: Assay 6-II: pAKT analysis of AML patient bone marrow sample (pAKT ELISA); assay type: cell-based, human
Experimental: 6-II: pAKT analysis of AML patient bone marrow sample using pAKT ELISA kit: Mononuclear cells were extracted by the Ficoll method and seeded in plates. The cells were treated by different compounds for 48 hrs before they were analyzed by pAKT ELISA kit following the product protocol. Briefly, 1×10^6 cells were transferred into an ELISA kit well and lyzed with 10 μL 5× Cell Lysis Mix (phospho-AKT 1/2/3 (Ser473) InstantOne™ ELISA Kit, eBioscience, 85-86042). The cells were then incubated with 50 μl antibody cocktail for 1 hr at room temp. on a microplate shaker (˜300 rpm). After incubating with detection reagent, the result was measured using a SpectraMAX Plus microplate spectrophotometer set at 450 nm.

[5] = tested on: AML patient bone marrow leukemic cells; experiment: Assay 6-III: Cell proliferation analysis of AML patient bone marrow sample (MTS); assay type: cell-based, human
Experimental: 6-III: Cell proliferation analysis of AML patient bone marrow sample using MTS assay: Mononuclear cells were extracted by the Ficoll method and seeded in plates. The cells were treated by different compounds for 48 hrs and 72 hrs before they were analyzed by MTS assay following product instruction. Briefly, 20 μL of the MTS solution was added into each well containing the 100 μL cell suspension, followed by incubation for 4 hours at 37° C., in 95% humidity with presence of 5% CO2. The absorbance of 490 nm (A490) was read using SpectraMAX Plus microplate spectrophotometer.

Sequence of PI3K β (P42338 whole entry): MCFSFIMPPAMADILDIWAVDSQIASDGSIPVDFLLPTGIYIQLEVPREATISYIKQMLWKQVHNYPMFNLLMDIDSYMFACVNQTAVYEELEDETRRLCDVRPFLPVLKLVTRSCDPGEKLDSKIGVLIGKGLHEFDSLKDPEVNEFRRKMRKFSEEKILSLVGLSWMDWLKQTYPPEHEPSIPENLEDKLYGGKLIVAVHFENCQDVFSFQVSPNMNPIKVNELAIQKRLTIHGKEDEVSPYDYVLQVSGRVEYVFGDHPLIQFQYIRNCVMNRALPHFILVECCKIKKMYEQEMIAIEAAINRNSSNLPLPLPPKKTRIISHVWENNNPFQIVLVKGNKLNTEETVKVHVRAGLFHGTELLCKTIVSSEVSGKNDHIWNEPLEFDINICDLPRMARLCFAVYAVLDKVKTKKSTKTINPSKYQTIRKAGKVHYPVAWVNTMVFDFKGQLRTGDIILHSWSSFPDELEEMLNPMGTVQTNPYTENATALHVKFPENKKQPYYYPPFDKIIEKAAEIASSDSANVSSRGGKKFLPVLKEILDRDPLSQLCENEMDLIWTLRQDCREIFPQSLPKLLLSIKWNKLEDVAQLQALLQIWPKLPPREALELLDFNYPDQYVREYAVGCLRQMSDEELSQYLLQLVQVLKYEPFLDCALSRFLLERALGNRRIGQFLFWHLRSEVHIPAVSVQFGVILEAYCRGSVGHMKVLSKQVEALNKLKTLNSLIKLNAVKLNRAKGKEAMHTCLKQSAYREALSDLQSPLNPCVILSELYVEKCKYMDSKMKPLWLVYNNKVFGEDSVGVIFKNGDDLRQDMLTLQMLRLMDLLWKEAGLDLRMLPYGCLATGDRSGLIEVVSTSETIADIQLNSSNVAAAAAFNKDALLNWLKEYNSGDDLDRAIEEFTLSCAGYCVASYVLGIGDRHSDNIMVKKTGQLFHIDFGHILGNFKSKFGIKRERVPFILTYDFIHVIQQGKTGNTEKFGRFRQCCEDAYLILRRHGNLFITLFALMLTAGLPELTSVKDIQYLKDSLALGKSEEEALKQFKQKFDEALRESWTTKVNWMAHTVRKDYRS
Sequence of PI3K β (P27986 whole entry partner): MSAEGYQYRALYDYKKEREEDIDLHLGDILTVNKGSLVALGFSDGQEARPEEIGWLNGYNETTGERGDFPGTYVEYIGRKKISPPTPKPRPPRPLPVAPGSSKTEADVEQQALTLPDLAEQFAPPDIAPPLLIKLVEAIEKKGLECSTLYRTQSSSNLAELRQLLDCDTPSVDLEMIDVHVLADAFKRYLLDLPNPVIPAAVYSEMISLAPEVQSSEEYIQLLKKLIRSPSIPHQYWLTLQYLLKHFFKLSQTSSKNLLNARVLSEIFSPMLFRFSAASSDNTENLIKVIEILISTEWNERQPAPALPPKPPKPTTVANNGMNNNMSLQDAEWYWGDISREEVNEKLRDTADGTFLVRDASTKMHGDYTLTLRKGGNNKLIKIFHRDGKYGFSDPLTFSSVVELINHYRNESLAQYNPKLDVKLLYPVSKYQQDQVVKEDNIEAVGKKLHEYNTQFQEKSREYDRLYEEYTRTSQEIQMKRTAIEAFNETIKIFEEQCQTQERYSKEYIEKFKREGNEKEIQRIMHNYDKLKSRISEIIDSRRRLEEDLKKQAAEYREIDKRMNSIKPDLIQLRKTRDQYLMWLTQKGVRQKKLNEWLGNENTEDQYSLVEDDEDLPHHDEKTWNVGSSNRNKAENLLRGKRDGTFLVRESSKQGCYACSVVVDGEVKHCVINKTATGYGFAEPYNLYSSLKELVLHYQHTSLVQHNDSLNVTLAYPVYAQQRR
Sequence of PI3K γ (P48736 whole entry): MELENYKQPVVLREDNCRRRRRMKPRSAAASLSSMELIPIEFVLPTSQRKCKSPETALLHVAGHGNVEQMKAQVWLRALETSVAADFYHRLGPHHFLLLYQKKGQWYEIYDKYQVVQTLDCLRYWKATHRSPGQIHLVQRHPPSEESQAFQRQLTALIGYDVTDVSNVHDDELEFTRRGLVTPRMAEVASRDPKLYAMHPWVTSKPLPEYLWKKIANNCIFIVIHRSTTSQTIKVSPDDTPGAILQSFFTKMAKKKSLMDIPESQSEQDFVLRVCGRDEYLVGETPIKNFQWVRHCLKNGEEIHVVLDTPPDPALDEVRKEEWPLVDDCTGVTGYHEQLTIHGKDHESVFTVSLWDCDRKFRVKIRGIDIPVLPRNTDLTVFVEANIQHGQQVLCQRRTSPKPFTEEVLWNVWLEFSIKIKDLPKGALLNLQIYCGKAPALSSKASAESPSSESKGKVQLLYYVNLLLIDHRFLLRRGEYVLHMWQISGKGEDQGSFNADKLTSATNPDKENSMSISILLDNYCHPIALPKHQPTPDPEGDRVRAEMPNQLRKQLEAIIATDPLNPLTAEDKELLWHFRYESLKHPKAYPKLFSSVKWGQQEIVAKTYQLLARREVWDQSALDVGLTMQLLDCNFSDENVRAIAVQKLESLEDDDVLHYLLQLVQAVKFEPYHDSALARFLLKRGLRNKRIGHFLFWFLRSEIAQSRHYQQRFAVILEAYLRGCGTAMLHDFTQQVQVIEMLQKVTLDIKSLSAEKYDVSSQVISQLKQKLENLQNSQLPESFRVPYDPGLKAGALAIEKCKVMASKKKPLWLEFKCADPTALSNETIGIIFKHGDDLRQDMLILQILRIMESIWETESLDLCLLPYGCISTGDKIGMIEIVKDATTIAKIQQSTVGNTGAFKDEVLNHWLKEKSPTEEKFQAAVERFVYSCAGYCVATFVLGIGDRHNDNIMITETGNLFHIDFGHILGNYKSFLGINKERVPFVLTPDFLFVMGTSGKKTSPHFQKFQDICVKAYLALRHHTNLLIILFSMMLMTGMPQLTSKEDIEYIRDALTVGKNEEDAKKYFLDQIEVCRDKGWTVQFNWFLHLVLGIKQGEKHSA
Sequence of PI3K α (P42336 whole entry): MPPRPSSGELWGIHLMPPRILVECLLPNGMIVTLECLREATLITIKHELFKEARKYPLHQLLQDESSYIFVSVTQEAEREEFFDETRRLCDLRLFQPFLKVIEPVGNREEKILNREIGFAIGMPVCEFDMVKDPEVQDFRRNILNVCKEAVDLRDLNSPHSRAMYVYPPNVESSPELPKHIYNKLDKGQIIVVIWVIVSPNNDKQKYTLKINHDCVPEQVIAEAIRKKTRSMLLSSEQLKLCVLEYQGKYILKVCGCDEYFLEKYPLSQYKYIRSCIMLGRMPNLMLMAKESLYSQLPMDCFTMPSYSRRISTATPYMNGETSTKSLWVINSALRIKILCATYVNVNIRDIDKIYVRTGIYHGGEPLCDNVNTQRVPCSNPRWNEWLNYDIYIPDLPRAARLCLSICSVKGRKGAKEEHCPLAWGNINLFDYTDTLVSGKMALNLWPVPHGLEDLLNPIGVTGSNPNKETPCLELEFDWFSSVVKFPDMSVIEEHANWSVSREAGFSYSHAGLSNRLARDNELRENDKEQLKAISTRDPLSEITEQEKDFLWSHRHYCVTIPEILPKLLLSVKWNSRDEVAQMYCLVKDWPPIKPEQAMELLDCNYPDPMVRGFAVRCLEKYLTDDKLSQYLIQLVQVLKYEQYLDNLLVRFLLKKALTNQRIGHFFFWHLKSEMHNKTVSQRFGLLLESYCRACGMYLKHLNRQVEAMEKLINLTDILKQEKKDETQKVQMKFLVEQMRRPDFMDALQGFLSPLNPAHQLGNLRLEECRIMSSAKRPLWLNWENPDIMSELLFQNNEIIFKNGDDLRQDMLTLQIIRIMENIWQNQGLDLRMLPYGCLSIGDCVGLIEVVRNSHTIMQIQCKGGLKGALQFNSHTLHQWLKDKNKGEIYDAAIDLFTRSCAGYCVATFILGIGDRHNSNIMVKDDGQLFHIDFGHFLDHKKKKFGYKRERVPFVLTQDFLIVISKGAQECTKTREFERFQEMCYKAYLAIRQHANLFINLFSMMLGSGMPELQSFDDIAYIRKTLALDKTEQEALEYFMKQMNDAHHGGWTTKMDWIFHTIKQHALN
Sequence of PI3K α (P27986 whole entry partner): as the sequence (P27986 whole entry partner) above
Sequence of PI3Kδ (O00329 whole entry, canonical isoform): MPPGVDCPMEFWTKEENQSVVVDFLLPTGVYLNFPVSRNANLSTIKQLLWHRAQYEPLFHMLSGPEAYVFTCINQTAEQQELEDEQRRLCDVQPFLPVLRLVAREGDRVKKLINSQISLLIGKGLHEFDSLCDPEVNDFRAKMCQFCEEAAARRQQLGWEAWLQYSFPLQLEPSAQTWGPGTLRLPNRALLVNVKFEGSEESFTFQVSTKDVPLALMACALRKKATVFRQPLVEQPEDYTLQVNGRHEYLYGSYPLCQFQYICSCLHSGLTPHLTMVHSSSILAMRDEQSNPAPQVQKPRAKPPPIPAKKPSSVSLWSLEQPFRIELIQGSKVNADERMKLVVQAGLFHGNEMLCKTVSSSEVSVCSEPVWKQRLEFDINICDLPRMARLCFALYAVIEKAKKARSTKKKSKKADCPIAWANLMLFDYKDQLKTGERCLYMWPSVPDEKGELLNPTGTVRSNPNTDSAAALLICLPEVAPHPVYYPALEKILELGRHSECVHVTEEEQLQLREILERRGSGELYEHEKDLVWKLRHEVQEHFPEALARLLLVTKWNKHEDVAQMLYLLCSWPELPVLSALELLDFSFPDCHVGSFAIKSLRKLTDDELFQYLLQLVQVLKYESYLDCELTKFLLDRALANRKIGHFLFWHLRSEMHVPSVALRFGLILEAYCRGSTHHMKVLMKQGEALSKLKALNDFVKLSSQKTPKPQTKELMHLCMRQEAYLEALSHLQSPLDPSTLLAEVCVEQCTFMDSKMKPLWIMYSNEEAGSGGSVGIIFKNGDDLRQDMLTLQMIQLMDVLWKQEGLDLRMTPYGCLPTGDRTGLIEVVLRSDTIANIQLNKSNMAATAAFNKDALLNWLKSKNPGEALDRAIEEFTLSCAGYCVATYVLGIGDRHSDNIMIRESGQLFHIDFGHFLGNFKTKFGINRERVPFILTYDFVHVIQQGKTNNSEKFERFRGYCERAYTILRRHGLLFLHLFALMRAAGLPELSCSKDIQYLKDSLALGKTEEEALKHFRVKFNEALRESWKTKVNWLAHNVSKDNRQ
Sequence of PI3Kδ (P27986 whole entry partner, canonical isoform): as the sequence (P27986 whole entry partner) above

Metabolic stability in liver microsomes, Mouse (percent parent compound remaining) [1]: 46.1%
Metabolic stability in liver microsomes, Rat (percent parent compound remaining) [2]: 35.8%
IC50 (PI3K delta): 13.8 nM
inhibition at 1 µM (PI3K α): 8.91%
Fold-Selectivity PI3Kα (PI3K α; Enzyme, versus PI3Kδ): >1000 fold
inhibition at 1 µM (PI3K β): 47.9%
Fold-Selectivity PI3Kβ (PI3K β; Enzyme, versus PI3Kδ): >54 fold
inhibition at 1 µM (PI3K γ): 80.6%
Fold-Selectivity PI3Kγ (PI3K γ; Enzyme, versus PI3Kδ): >9 fold
EC50 (PI3Kδ): < 50 nM
Structure (SMILES): CC(C)Oc1ccc(-c2nn([C@@H](C)c3oc4ccccc4c(=O)c3-c3cccc(F)c3)c3ncnc(N)c23)cc1F [Compound A1, (S)-2-(1-(4-amino-3-(3-fluoro-4-isopropoxyphenyl)-1H-pyrazolo[3,4-d]pyrimidin-1-yl)ethyl)-3-(3-fluorophenyl)-4H-chromen-4-one]
inhibition at 1 µM [3]: 50 to 90%
AKT phosphorylation (dose dependence) [4]: dose dependent reduction
inhibition at 0.3 µM ([4]; Homo sapiens, Bone marrow cell, 0.3 μM, 48 hrs): > 50%
cell viability / proliferation [5]: dose dependent reduction in proliferation; also recorded: Dose dependent reduction in cell viability
